These results are taken from patent publication US6855804B2, “Covalently reactive transition state analogs and methods of use thereof” (Board of Regents, The University of Texas System, priority 1998, dated 2005).

Non-standard residues stand in square brackets, D forms with d. Residues, ends and D or L forms follow the SMILES beside them. *: point of attachment. Sta = CC(C)C[C@H](N)[C@@H](O)CC(=O)O; Isovaleryl = CC(C)CC(=O)*

Assay [1] deals with Fv YZ17. The class given is biochemical, mouse.
In a further assay the target is L chain GG63 (Homo sapiens, UniProt P01834). Kind of assay: Inhibition of L chain GG63 catalysed PFR-MCA cleavage.
The next assay concerns the target Thrombin (human, a) (Homo sapiens, UniProt P00734). The class given is biochemical.
Assay [2] concerns the target trypsin (porcine, type IX) (Sus scrofa, UniProt P00761). Briefly: biochemical. It counts as biochemical.
Another assay addresses trypsin (Sus scrofa, UniProt P00761). It counts as binding, porcine.
The subject of assay [3] is L chain U16. It counts as biochemical, mouse.
The test system of assay [4] is L chain hk14. The class given is biochemical.
The subject of assay [5] is L chain c23.5. The class given is biochemical.
Another assay relates to Fv mRT3. The class given is biochemical.
Assay [6] relates to L chain hk14. It counts as binding.
Assay [7] has as its system L chain U16. The class given is binding, mouse.
For assay [8], the system named is L chain c23.5. The class given is binding.
The test system of assay [9] is VIPase antibody fragments. It counts as biochemical.
Another assay relates to L chain clone c23.5. The class given is binding.
The subject of assay [10] is Fv YZ17. The class given is binding, mouse.
For another assay, the system named is L chain clone SK35. It counts as binding.

Sequence of trypsin (porcine, type IX) (P00761 9-231): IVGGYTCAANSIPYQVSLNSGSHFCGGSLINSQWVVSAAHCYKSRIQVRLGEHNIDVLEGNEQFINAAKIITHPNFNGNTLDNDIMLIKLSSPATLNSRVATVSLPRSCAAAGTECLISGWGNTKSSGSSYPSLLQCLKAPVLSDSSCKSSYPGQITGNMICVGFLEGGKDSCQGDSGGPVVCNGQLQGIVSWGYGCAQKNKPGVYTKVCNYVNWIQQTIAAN
Sequence of trypsin (P00761 9-231): as above

On to `NC(=O)CI` [Iodoacetamide, iodoacetamide], for which the “Inhibition, % Iodoacetamide” value with Fv YZ17 [1] is recorded as 4.4%; on L chain GG63, 5.8%.
In the case of `N=C(N)c1ccc(C(NC(=O)CCSSCCC(=O)NCCNC(=O)CCCCC2SCC3NC(=O)NC32)P(=O)(O)Oc2ccccc2)cc1` (stereo not shown) [Compound 3, Monophenyl-N-[2-(biotinamido)ethylamido-3,3′-dithiodipropionyl]amino(4-amidinophenyl)methanephosphonate], the “irreversible inhibition of thrombin activity” value at Thrombin (human, a) is recorded as “inhibition of activity despite dilution”. In the assay on Fv YZ17 [1], the “irreversible inhibition of YZ17 activity” value is given as “inhibition of activity despite dilution”. For the same compound, in assay [2], the “inhibition of trypsin activity after pretreatment and dilution” value came out at 85%; the “inhibition of trypsin without pretreatment” value is on record as “no inhibition”; the “inhibition of trypsin-catalyzed EAR-MCA hydrolysis” value is recorded as 9.9-80%; the “irreversibility of trypsin inhibition” value is “irreversible”. In [2], the “k3, first-order rate constant for decomposition of Ei-I” value is on record as about 0; the “trypsin activity level following gel filtration” value is on record as 27.6±2.6 FU/h; the “trypsin activity level without removal of phosphonate” value came to 33.2±2.6 FU/h; the “trypsin activity of adduct isolated by gel filtration after incubation in buffer” value is 50.2±7.0 FU/h. Besides, the “covalent labeling of trypsin (adducts after denaturing treatment)” value on trypsin is reported as “labeled”.
Take “phenylphosphonate 4-nitrophenyl [N-(6-biotinylhexanediamin-1-yl)carboxymethyl]tropan-3-ol diester [diester II]”: the “inhibition of cleavage of PFR-MCA” value stood at 79% in the assay with L chain U16 [3], 71% in the assay with L chain hk14 [4], 83% in the assay on L chain c23.5 [5] and 92% with Fv mRT3. The “II labeling of monomer L chain, % of the Fv level” value in the assay on L chain hk14 [6] is given as 33%; with L chain U16 [7], 51%; in the assay on L chain c23.5 [8], 18%. The “irreversibility of peptidase inhibition after removal of free inhibitor by gel filtration” value in assay [9] was “did not restore the catalytic activity”.
Turning to `N=C(N)c1ccc(C(NC(=O)CCSSCCC(=O)NCCNC(=O)CCCCC2SCC3NC(=O)NC32)P(=O)(Oc2ccccc2)Oc2ccccc2)cc1` (stereo not shown) [Compound 5, Diphenyl-N-[2-(biotinamido)ethylamido-3,3′-dithiodipropionyl]amino(4-amidinophenyl)methanephosphonate], in assay [2], the “kapp/[I]” value came to 0.23 M⁻¹ s⁻¹, the “trypsin activity level following gel filtration” value turned out to be 5.0±0.1 FU/h and the “trypsin activity level without removal of phosphonate” value came to 6.5±0.2 FU/h. In addition, at trypsin, the “covalent labeling of trypsin (adducts after denaturing treatment)” value is “labeled”.
As for `c1cnc2c(c1)ccc1cccnc12` [Phenanthroline, phenanthroline], the “Inhibition, % Phenanthroline” value in the assay on Fv YZ17 [1] was found to be 0.2%. For the same compound, the inhibition (commonly the percentage by which the read-out fell short of the control) at 10000 µM at L chain GG63 (read-out: Inhibition, % Phenanthroline) is 0.6%.
`N=C(N)c1ccc(C(NC(=O)OCc2ccccc2)P(=O)(Oc2ccccc2)Oc2ccccc2)cc1` (stereo not shown) [Compound 1, Diphenyl N-(benzyloxycarbonyl)amino(4-amidinophenyl)methanephosphonate, reference compound]: in assay [2], the “k2, first-order rate constant for formation of covalent adduct” value is 2.0 min⁻¹; the “kapp/[I]” value was 3703 M⁻¹ s⁻¹; the “ΔG of noncovalent enzyme-inhibitor interactions (ΔG=−RTlnKi)” value is on record as 7.3 kcal/mol.
As to `N=C(N)c1ccc(C(NC(=O)CCCCCNC(=O)CCCC[C@@H]2SC[C@@H]3NC(=O)N[C@@H]32)P(=O)(O)Oc2ccccc2)cc1` (stereo partly shown) [Compound 4, Monophenyl N-[6-(biotinamido)hexanoyl]amino(4-amidinophenyl)methanephosphonate], the “stable adduct formation with L chain c23.5” value in the assay on L chain clone c23.5 is “failed to form stable 4-adduct”. Further, the “stable adduct formation with Fv YZ17” value in the assay with Fv YZ17 [10] is given as “adducts stable to denaturing treatments were observed”. Besides, the “stable adduct formation with L chain SK35” value in the assay on L chain clone SK35 is “adducts stable to denaturing treatments were observed”.
As for `CC(C)CC(=O)N[C@H](C(=O)N[C@H](C(=O)N[C@@H](CC(C)C)[C@@H](O)CC(=O)N[C@@H](C)C(=O)N[C@@H](CC(C)C)[C@@H](O)CC(=O)O)C(C)C)C(C)C` [Pepstatin A, pepstatin A] (Isovaleryl-VV[Sta]A[Sta]-OH), the “Inhibition, % Pepstatin A” value in the assay with Fv YZ17 [1] is listed as 1.2 (2.9) %; on L chain GG63, 0.2 (1.3) %.
As for `N=C(N)c1ccc(C(NC(=O)OCc2ccccc2)P(=O)(O)Oc2ccccc2)cc1` (stereo not shown) [Compound 2, Monophenyl N-(benzyloxycarbonyl)amino(4-amidinophenyl)methanephosphonate], the affinity in assay [2] corresponds to a Ki of 5.2 mM. Further, the kinact/KI in assay [2] (read-out: k2/Ki) is 1.5 M⁻¹ s⁻¹.
